“Also recorded” adds a separate entry of the source.

One test addresses CI-MPR. More on the design: method as in PMID 30843882. Particulars: rhGAA with higher M6P content; read-out: apparent KD; cited from earlier work.
Test [1] concerns the target T1, Recombinant human IGF-II R (CI-MPR) (Homo sapiens, UniProt P11717).
T1 construct: purchased R&D Systems
In words: SPR binding to immobilized CI-MPR. As to conditions: SPR, immobilized CI-MPR.
Description: Surface Plasmon Resonance (SPR) Measurements. SPR measurements were performed on a Biacore T200 instrument (GE Healthcare). Recombinant human IGF-II R (CI-MPR) was purchased
from R&D Systems. Approximately 7000 resonance units (RU) of CI-MPR was immobilized on a
CM5 sensor chip in a sodium acetate buffer (25 μg/mL, pH 4.0) at 25 °C, using the amine coupling kit
provided by the manufacturer. Mannose 6-phosphate containing glycopeptides or glycoproteins were
determined at 25 °C under a flow rate of 10 μL/min. HBS-P+ buffer (10 mM HEPES, 150 mM NaCl,
0.05% surfactant P20, pH 7.4) was used as sample buffer and running buffer. Association was
measured for 3 min and dissociation for 10 min at same flow rate (10 μL/min). The surface
and glycoprotein analytes flowed over an immobilized chip with 2-fold serial dilution of the highest
concentration of 4 μM (for glycopeptides) or 1 μM (for RNase B) or 250 nM (for rhGAA).
analyses were performed by global fitting of the binding data to a 1:1 Langmuir binding model using

Test [2] concerns GAA-deficient multinucleated myotubes (KO). Put plainly: Western blot of lysosomal (LAMP1) and endosomal (Rab5) markers. It counts as cell-based, mouse. Particulars: 5 μM for 24 hours. (In western blotting, separated proteins are transferred to a membrane and probed.)
The test system is the same in test [3]. Put plainly: Lamp1 immunostaining of myotubes (lysosomal swelling). It counts as cell-based, mouse. Particulars: 5 μM for 24 hours, confocal images. From the text: The effect of the Endo-A and Endo-F3 remodeled rhGAA was confirmed by immunostaining of myotubes with Lamp1. […] The therapeutic potential of the M6P glycan-remodeled rhGAA in lysosomal glycogen reduction and reversal of muscle pathology will be further evaluated in Pompe disease animal models in future studies.
Fig. 5 Effect of the therapeutic enzymes on lysosomal swelling and glycogen content in GAA KO (KO) myotubes. […] Nuclei are stained with DAPI (blue). Bar: 10 μm. (b) Graph illustrates glycogen levels measured in cell lysates from WT, untreated- and treated KO myotubes. […] Statistical significance was determined by one-way ANOVA; graph represents mean ± SD. **p <0.01; ****p <0.0001; ns – statistically insignificant.
(§1) Measurement of cell-associated GAA activity. The GAA activity in the cells was measured by using 4-methylumbelliferyl-α-D-glucopyranoside (4-MU- α-glucopyranoside; Sigma-Aldrich #M9766) as the fluorogenic GAA substrate as described.[13] […] Fluorescence was measured on a multi-label plate reader (TECAN, SPARK 10M) at 360 nm excitation/465 nm emission.
(§2) Measurement of the glycogen content. The glycogen content was measured as the amount of glucose released after glycogen digestion with Aspergillus Niger amyloglucosidase (Sigma-Aldrich). […]

Test [4] has the same test system. Put plainly: Cell-associated GAA activity in treated GAA KO myotubes. It counts as cell-based, mouse. Particulars: 5 μM for 24 hours, n = 5, versus untreated cells. The text has this:
To evaluate the effect of the Endo-A (69) and Endo-F3 (70) remodeled rhGAA in the disease-relevant muscle cells, we used GAA-deficient multinucleated myotubes (KO) as an in vitro cell model system for Pompe disease.[48,49] These myotubes are formed from conditionally immortalized myoblasts derived from the GAA knockout mice; unlike myoblasts, the differentiated myotubes replicate the primary defect of the disease, namely, the enlargement of glycogen-laden lysosomes.
The available anti-human GAA antibodies detected a strong non-specific band in mouse muscle cells as indicated by its presence in both WT and GAA-deficient cell (Fig. 4b, right panel). Previous studies have shown that the mature 76 kDa form of GAA has a higher affinity and activity towards glycogen.[31,50] […]
BIAcore T200 evaluation software. rhGAA enzyme activity assay. The enzyme activity was assayed by using the substrate 4-methylumbelliferyl-α-D-glucopyranoside (4-MUG) (Sigma-Aldrich) which generates fluorescence on digestion.[9, 10] […] The reaction was monitored at 0 min, 1 min, 2 min, 5 min, 10 min and 15 min by taking 20 μL of aliquot and add ing 50 μL of stop buffer (100 mM glycine/NaOH, pH 11). Fluorescence was measured by a spectrophotometer with 355 nm excitation and 460 nm emission, and the error bar was based on three independent assays. […]

Test [5] shares this test system. Put plainly: Western blot (anti-human GAA) of treated muscle cell lysates. In kind it is cell-based, mouse. As to conditions: 5 μM for 24 hours, Western blot with anti-human GAA antibodies. As for the experimental part: The available anti-human GAA antibodies detected a strong non-specific band in mouse muscle cells as indicated by its presence in both WT and GAA-deficient cell (Fig. 4b, right panel). Previous studies have shown that the mature 76 kDa form of GAA has a higher affinity and activity towards glycogen.[31,50]
Fig. 4 Effect of the therapeutic enzymes in GAA KO (KO) myotubes. […] GAA activity in cell lysates of wild type (WT) myotubes was measured for comparison. The KO cells were treated for 24 hours with 5 μM of each of the recombinant enzyme; n = 5 for each condition. Statistical significance was determined by one-way ANOVA; graph represents mean ± SD. *p <0.05; ****p <0.0001; ns – statistically insignificant. (b) Western blot analysis (with anti-human GAA antibodies) of muscle cell lysates treated with the recombinant enzymes; GAPDH was used as loading control. […]
as §1, §2

T1 sequence (P11717 41-2491): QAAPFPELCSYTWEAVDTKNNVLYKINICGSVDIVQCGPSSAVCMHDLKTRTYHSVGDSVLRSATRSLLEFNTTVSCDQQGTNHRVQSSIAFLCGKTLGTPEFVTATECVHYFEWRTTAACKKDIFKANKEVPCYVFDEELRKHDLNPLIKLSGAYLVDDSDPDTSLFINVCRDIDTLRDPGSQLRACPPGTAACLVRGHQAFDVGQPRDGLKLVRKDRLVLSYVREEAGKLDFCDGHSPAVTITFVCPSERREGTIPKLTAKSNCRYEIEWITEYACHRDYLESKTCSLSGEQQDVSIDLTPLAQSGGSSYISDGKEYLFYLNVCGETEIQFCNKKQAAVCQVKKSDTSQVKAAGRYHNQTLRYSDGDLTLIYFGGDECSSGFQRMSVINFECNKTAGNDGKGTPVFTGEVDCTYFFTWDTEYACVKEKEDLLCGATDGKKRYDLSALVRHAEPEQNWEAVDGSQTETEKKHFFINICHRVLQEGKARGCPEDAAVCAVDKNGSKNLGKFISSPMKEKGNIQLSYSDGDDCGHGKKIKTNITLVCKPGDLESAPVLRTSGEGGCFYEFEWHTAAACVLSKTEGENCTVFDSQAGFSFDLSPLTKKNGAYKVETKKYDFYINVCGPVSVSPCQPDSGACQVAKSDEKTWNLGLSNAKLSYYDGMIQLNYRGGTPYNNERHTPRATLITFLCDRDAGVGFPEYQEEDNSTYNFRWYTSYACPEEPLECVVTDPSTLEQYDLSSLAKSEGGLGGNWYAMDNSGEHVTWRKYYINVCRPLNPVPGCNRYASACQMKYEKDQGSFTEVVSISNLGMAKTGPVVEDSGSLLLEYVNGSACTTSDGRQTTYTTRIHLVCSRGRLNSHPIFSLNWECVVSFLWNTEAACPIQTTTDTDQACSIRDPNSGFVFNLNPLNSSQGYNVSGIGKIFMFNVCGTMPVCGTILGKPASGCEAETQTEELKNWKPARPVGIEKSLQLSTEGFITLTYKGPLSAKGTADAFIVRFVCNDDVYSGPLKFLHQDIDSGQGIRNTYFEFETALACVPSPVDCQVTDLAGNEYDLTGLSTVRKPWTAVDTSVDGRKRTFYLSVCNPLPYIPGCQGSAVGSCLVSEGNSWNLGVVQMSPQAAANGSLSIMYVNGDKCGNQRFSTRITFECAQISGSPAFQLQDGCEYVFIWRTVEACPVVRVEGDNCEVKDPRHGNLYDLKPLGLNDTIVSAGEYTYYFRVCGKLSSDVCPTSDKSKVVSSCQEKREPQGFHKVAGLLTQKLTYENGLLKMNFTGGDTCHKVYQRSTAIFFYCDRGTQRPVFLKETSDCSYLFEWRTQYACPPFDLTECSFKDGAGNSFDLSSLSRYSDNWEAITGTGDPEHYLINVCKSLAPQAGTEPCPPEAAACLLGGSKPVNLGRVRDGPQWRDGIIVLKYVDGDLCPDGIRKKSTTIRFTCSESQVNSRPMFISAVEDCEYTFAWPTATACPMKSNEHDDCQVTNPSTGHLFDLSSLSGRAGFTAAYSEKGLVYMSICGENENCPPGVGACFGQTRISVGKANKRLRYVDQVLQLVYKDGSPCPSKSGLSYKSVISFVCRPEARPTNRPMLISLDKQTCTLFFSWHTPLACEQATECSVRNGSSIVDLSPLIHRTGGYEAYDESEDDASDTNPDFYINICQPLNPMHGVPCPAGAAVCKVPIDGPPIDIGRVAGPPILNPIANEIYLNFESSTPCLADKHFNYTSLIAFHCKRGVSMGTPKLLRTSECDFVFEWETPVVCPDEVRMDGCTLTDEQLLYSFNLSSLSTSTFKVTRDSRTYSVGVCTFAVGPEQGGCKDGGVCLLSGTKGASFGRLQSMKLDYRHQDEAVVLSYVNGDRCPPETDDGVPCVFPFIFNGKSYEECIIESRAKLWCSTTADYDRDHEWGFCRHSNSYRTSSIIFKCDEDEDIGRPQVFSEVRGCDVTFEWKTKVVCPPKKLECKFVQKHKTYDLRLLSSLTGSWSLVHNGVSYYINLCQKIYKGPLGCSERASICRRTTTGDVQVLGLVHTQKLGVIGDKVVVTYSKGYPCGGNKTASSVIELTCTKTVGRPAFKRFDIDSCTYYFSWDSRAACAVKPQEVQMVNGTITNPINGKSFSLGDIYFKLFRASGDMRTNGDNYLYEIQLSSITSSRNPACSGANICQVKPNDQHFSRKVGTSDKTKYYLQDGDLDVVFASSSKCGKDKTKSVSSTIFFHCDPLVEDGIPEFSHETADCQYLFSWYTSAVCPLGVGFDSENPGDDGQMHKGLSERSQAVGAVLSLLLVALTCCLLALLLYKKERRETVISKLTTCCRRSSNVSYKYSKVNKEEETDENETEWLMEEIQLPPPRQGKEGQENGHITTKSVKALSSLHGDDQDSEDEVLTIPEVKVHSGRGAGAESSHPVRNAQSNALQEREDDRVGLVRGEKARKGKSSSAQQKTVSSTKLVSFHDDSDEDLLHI

As for “ATB200: a novel rhGAA carrying a higher M6P content”, the Kd at CI-MPR was 2 to 4 nM.

Regarding “Lumizyme: recombinant human acid α-glucosidase (rhGAA; Lumizyme, Sanofi Genzyme) used for treatment of Pompe disease”, the Kd in test [1] (25 °C, average of three independent experiments) came to 14 ± 3.7 nM. Besides, the “levels of endosomal (Rab5) and lysosomal (LAMP1) markers” value in test [2] was “remained the same as in the untreated GAA-deficient cells”. The “enlarged LAMP1-positive lysosomes” value in test [3] is “Enlarged lysosomes were seen; also recorded: can be detected”. In test [4], the “GAA activity in cell lysates” value is listed as “only a slight increase (statistically insignificant)”. In addition, the “processed, mature lysosomal form of rhGAA (76 kDa) in cells” value in test [5] is reported as “barely detectable”.

For “deglycosylated rhGAA: rhGAA treated with wild-type Endo-A to remove the high-mannose N-glycans including the M6P glycans”, in test [1], the “affinity for CI-MPR (in words)” value is reported as “lost its binding affinity”.

The values are drawn from publication PMC8480326, “Chemoenzymatic glycan-selective remodeling of a therapeutic lysosomal enzyme with high-affinity M6P-glycan ligands. Enzyme substrate specificity is the name of the game” (Chemical Science, 2021).
